From patent US20080207572A1, “Use of Dual C-Kit/Fgfr3 Inhibitors for Treating Multiple Myeloma” (AB Science, priority 2005, published 2008) come the findings set out here.

Holding throughout (format): cell-based
Experiment [1] concerns human mast cell line expressing the JMΔ27 mutated c-kit. In words: Apoptosis induction in mast cell line. The settings on record: 0.1 μM, after 48 hours; control cells 10% apoptotic. On the procedure:
(§1) In this experiment, after 48 hours, 0.1 μM AB1010 induced apoptosis of approximately 50% versus control cells in which 10% of cells were apoptotic. In addition, a separate cell line (Ba/F3-derived) expressing JMΔ27 was tested and apoptosis was induced to a level of approximately 85%.

Experiment [2] relates to cell line (Ba/F3-derived) expressing JMΔ27. The experiment is described as follows: Apoptosis induction in Ba/F3-derived cell line. The protocol:
as §1

The test system of experiment [3] is t(4; 14) FGFR3+ human plasma cell line LP1. In words: FGF-enhanced proliferation (3H-Thymidine uptake). The note with it: in the presence of FGF; FIG. 2. The source says: In the presence of FGF, the proliferation of the t(4; 14) FGFR3+ human plasma cell line is enhanced, as measured by 3H-Thymidine uptake.

Turning to `Cc1ccc(NC(=O)c2ccc(CN3CCN(C)CC3)cc2)cc1Nc1nc(-c2cccnc2)cs1` [AB1010], the apoptosis induced entry in experiment [1] is “approximately 50%”; in experiment [2], “approximately 85%”. Besides, in experiment [3], the “inhibition of FGF-enhanced proliferation” value is “inhibit the FGF-enhanced proliferation”.
